Earlier results in patent publication US20060257502A1, “A COMBINATION OF MITOCHONDRIAL NUTRIENTS FOR RELIEVING STRESS, PREVENTING AND IMPROVING STRESS-RELATED DISORDERS” (priority 2005, published 2006).

System: rats

Oc1ccc(/C=C/c2cc(O)cc(O)c2)cc1 [Resveratrol, trans-3,5,4′-trihydroxystilbene]
No observed adverse effect level: 300 mg per kilogram body weight per day
